According to ChEMBL document CHEMBL3826977, “Discovery and Structural Characterization of G-quadruplex DNA in Human Acetyl-CoA Carboxylase Gene Promoters: Its Role in Transcriptional Regulation and as a Therapeutic Target for Human Disease” (J Med Chem, 2016):
pKd: −log10 of the molar value. Calls of active or inactive are those of the source. The rule behind the calls is not given here.

Key:
[1] = Binding affinity to human ACC1 promoter2 G-quadraduplex DNA
[2] = Binding affinity to human ACC1 promoter1 G-quadraduplex DNA
[3] = system: HeLa; assay: Binding affinity to human ACC1 promoter G-quadraduplex DNA transfected in human HeLa cells assessed as suppression of ACC1 gene expression after 24 hrs by qRT-PCR method; assay type: cell-based
[4] = system: HeLa; assay: Effect on GAPDH gene expression in human HeLa cells at 5 to 20 uM after 24 hrs by qRT-PCR method; assay type: ADME, cell-based
[5] = system: HeLa; assay: Binding affinity to human wild type ACC1 promoter2 G-quadraduplex DNA transfected in human HeLa cells assessed as suppression of ACC1 gene expression at 0.1 to 25 uM after 24 hrs by dual luciferase reporter assay relative to control; assay type: cell-based
[6] = organism: Homo sapiens; assay: Binding affinity to human ACC1 promoter2 G-quadraduplex DNA assessed as apparent isosbestic point at 5 uM by UV-vis absorption spectroscopy
[7] = organism: Homo sapiens; assay: Binding affinity to human ACC1 promoter2 G-quadraduplex DNA assessed as decrease in fluorescence emission intensity by fluorescence emission spectroscopy
[8] = organism: Homo sapiens; assay: Binding affinity to human ACC1 promoter1 G-quadraduplex DNA at 5 uM by UV-vis absorption spectroscopy
[9] = system: HeLa; assay: Binding affinity to human wild type ACC1 promoter1 G-quadraduplex DNA transfected in human HeLa cells assessed as suppression of ACC1 gene expression at 0.1 to 25 uM after 24 hrs by dual luciferase reporter assay relative to control; assay type: cell-based
[10] = organism: Homo sapiens; assay: Binding affinity to human ACC1 promoter2 G-quadraduplex DNA assessed as bathochromic red shift at 5 uM by UV-vis absorption spectroscopy
[11] = system: HeLa; assay: Binding affinity to human wild type ACC1 promoter2 G-quadraduplex DNA transfected in human HeLa cells assessed as suppression of ACC1 gene expression after 24 hrs by dual luciferase reporter assay; assay type: cell-based
[12] = organism: Homo sapiens; assay: Binding affinity to human ACC1 promoter1 G-quadraduplex DNA assessed as decrease in fluorescence emission intensity by fluorescence emission spectroscopy
[13] = organism: Homo sapiens; assay: Binding affinity to human ACC1 promoter1 G-quadraduplex DNA assessed as inhibition of Taq-polymerase catalyzed primer extension preincubated for 1 hr followed by addition of Taq-polymerase measured after 30 mins by Taq-polymerase stop assay
[14] = system: HeLa; assay: Binding affinity to human wild type ACC1 promoter1 G-quadraduplex DNA transfected in human HeLa cells assessed as suppression of ACC1 gene expression after 24 hrs by dual luciferase reporter assay; assay type: cell-based
[15] = organism: Homo sapiens; assay: Binding affinity to human ACC1 promoter1 G-quadraduplex DNA mutant assessed as inhibition of Taq-polymerase catalyzed primer extension preincubated for 1 hr followed by addition of Taq-polymerase measured after 30 mins by Taq-polymerase stop assay
[16] = organism: Homo sapiens; assay: Binding affinity to human ACC1 promoter2 G-quadraduplex DNA assessed as hyperchromic shift at 5 uM by UV-vis absorption spectroscopy
[17] = organism: Homo sapiens; assay: Binding affinity to human ACC1 promoter2 G-quadraduplex DNA mutant assessed as inhibition of Taq-polymerase catalyzed primer extension preincubated for 1 hr followed by addition of Taq-polymerase measured after 30 mins in presence of KCl by Taq-polymerase stop assay
[18] = organism: Homo sapiens; assay: Binding affinity to human ACC1 promoter2 G-quadraduplex DNA assessed as inhibition of Taq-polymerase catalyzed primer extension preincubated for 1 hr followed by addition of Taq-polymerase measured after 30 mins in presence of KCl by Taq-polymerase stop assay

C[n+]1ccc(-c2c3nc(c(-c4cc[n+](C)cc4)c4ccc([nH]4)c(-c4cc[n+](C)cc4)c4nc(c(-c5cc[n+](C)cc5)c5ccc2[nH]5)C=C4)C=C3)cc1
pKd [1]: 7.15
pKd [2]: 7.15

c1cc2c(cc1-c1nc3cc(N4CCOCC4)ccc3[nH]1)c1cc(-c3nc4cc(N5CCOCC5)ccc4[nH]3)ccc1n2CCCCN1CCOCC1
inhibition [3]: Dose-dependent effect
Activity [4]: Non-toxic

C[n+]1ccc(-c2c3nc(c(-c4cc[n+](C)cc4)c4ccc([nH]4)c(-c4cc[n+](C)cc4)c4ccc([nH]4)c(-c4cc[n+](C)cc4)c4nc2C=C4)C=C3)cc1
inhibition [5]: 84%
Activity [6]: 432 nm
Activity [7]: Active
Activity [8]: Active
inhibition [9]: 67%
Activity [10]: 18 nm
inhibition [11]: Dose-dependent effect
Activity [12]: Active
inhibition [13]: Dose-dependent effect
inhibition [14]: Dose-dependent effect
inhibition [15]: inactive
Activity [16]: Active
inhibition [17]: Active
inhibition [18]: Dose-dependent effect
